Assays:
Assay type in all cases: cell-based
Citrobacter diversus = experiment: MIC against Gram-negative bacteria: Citrobacter diversus
Outline: (§1)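 Two-fold serial dilutions of each purified human EGF domain protein, three replicate wells per level, were combined with bacteria at a final 5×10^5 CFU/mL in LB. Cultures were shaken at 175 rpm, 37° C. The MIC was taken as the minimum concentration preventing growth.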

Klebsiella pneumonia = experiment: MIC against Gram-negative bacteria: Klebsiella pneumonia
Outline: as §1

Moraxella catarrhalis = experiment: MIC against Gram-negative bacteria: Moraxella catarrhalis
Outline: as §1

Pseudomonas aeruginosa = experiment: MIC against Gram-negative bacteria: Pseudomonas aeruginosa
Outline: as §1

Enterobacter cloacae = experiment: MIC against Gram-negative bacteria: Enterobacter cloacae
Outline: as §1

Serratia marcescens = experiment: MIC against Gram-negative bacteria: Serratia marcescens
Outline: as §1

Proteus vulgaris = experiment: MIC against Gram-negative bacteria: Proteus vulgaris
Outline: as §1

E. coli BL21 = experiment: MIC against Gram-negative bacteria: E. coli BL21
Outline: as §1

E. coli DH5α = experiment: Antibacterial activity: MIC and growth curve against E. coli DH5α in 96-well plate; conditions: minimal inhibitory concentration against E. coli DH5α; 96-well plate, 5×10^5 CFU/mL, 37° C., judged after 8 h
Outline: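 Log-phase bacteria (OD600 ~0.5) resuspended in LB at 5×10^5 CFU/mL, exposed to recombinant protein at 50, 25, 12.5 μg/mL final in triplicate, 37 °C shaking at 175 rpm. OD600 read every 30 min; MIC is lowest concentration showing no growth.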

Aeromonas hydrophila = experiment: MIC against Gram-negative bacteria: Aeromonas hydrophila
Outline: as §1

Proteus mirabilis = experiment: MIC against Gram-negative bacteria: Proteus mirabilis
Outline: as §1

[1] = Citrobacter diversus, 96-well plate, 5×10^5 CFU/mL, 37° C., 10 h
[2] = Klebsiella pneumonia, 96-well plate, 5×10^5 CFU/mL, 37° C., 10 h
[3] = Moraxella catarrhalis, 96-well plate, 5×10^5 CFU/mL, 37° C., 10 h
[4] = Pseudomonas aeruginosa, 96-well plate, 5×10^5 CFU/mL, 37° C., 10 h
[5] = Enterobacter cloacae, 96-well plate, 5×10^5 CFU/mL, 37° C., 10 h
[6] = Serratia marcescens, 96-well plate, 5×10^5 CFU/mL, 37° C., 10 h
[7] = Proteus vulgaris, 96-well plate, 5×10^5 CFU/mL, 37° C., 10 h
[8] = E. coli BL21, 96-well plate, 5×10^5 CFU/mL, 37° C., 10 h
[9] = Aeromonas hydrophila, 96-well plate, 5×10^5 CFU/mL, 37° C., 10 h
[10] = Proteus mirabilis, 96-well plate, 5×10^5 CFU/mL, 37° C., 10 h
[11] = 96-well plate, 5×10^5 CFU/mL, 37° C., 10 h
[12] = 10 h cultivation at 37° C., 5×10^5 CFU/mL, two-fold serial dilution
[13] = Citrobacter diversus, 5×10^5 CFU/mL, 10 h cultivation at 37° C.
[14] = Klebsiella pneumonia, 5×10^5 CFU/mL, 10 h cultivation at 37° C.
[15] = Moraxella catarrhalis, 5×10^5 CFU/mL, 10 h cultivation at 37° C.
[16] = Pseudomonas aeruginosa, 5×10^5 CFU/mL, 10 h cultivation at 37° C.
[17] = Enterobacter cloacae, 5×10^5 CFU/mL, 10 h cultivation at 37° C.
[18] = Serratia marcescens, 5×10^5 CFU/mL, 10 h cultivation at 37° C.
[19] = Proteus vulgaris, 5×10^5 CFU/mL, 10 h cultivation at 37° C.
[20] = E. coli BL21, 5×10^5 CFU/mL, 10 h cultivation at 37° C.
[21] = Aeromonas hydrophila, 5×10^5 CFU/mL, 10 h cultivation at 37° C.
[22] = Proteus mirabilis, 5×10^5 CFU/mL, 10 h cultivation at 37° C.

PRT1030 (DVDECSENRCHPAATCYNTPGSFSCRCQPGYYGDGFQCI; listed as Homo sapiens)
12.5 µg/mL: MIC (Klebsiella pneumonia; K. pneumonia, 10 h cultivation at 37° C.) | MIC (Moraxella catarrhalis; M. catarrhalis, 10 h cultivation at 37° C.) | MIC (Proteus vulgaris; P. vulgaris, 10 h cultivation at 37° C.) | MIC (E. coli BL21; E. coli BL21, 10 h cultivation at 37° C.)
25 µg/mL: MIC (E. coli DH5α) | MIC (Aeromonas hydrophila; A. hydrophila, 10 h cultivation at 37° C.)
50 µg/mL: MIC (Citrobacter diversus; C. diversus, 10 h cultivation at 37° C.) | MIC (Pseudomonas aeruginosa; P. aeruginosa, 10 h cultivation at 37° C.) | MIC (Enterobacter cloacae; E. cloacae, 10 h cultivation at 37° C.) | MIC (Serratia marcescens; S. marcescens, 10 h cultivation at 37° C.) | MIC (Proteus mirabilis; P. mirabilis, 10 h cultivation at 37° C.)

PRT125 (CTGHCAHPRLPCFHGGRCVERYSYYTCDCDLTAFDGPYCN; listed as Homo sapiens)
50 µg/mL: MIC (μg/mL) P. vulgaris (Proteus vulgaris; [7]) | MIC (μg/mL) A. hydrophila (Aeromonas hydrophila; [9])
100 µg/mL: MIC (E. coli DH5α)
12.5 µg/mL: MIC (μg/mL) K. pneumonia (Klebsiella pneumonia; [2]) | MIC (μg/mL) M. catarrhalis (Moraxella catarrhalis; [3]) | MIC (μg/mL) P. aeruginosa (Pseudomonas aeruginosa; [4]) | MIC (μg/mL) E. cloacae (Enterobacter cloacae; [5]) | MIC (μg/mL) E. coli BL21 (E. coli BL21; [8])
25 µg/mL: MIC (μg/mL) C. diversus (Citrobacter diversus; [1]) | MIC (μg/mL) S. marcescens (Serratia marcescens; [6]) | MIC (μg/mL) P. mirabilis (Proteus mirabilis; [10])

PRT696 (DVDECTQSPGLCGRGACKNLPGSFRCVCPAGFRGSACE; listed as Homo sapiens)
50 µg/mL: MIC K. pneumonia (Klebsiella pneumonia; [11]) | MIC (E. coli DH5α) | MIC P. mirabilis (Proteus mirabilis; [11])
25 µg/mL: MIC C. diversus (Citrobacter diversus; [11]) | MIC M. catarrhalis (Moraxella catarrhalis; [11]) | MIC E. cloacae (Enterobacter cloacae; [11]) | MIC P. vulgaris (Proteus vulgaris; [11]) | MIC E. coli BL21 (E. coli BL21; [11])
12.5 µg/mL: MIC P. aeruginosa (Pseudomonas aeruginosa; [11]) | MIC S. marcescens (Serratia marcescens; [11]) | MIC A. hydrophila (Aeromonas hydrophila; [11])

PRT690 (EAEECGILDGCTNGRCVRVPEGFTCRCFDGYRLDMTRMACV; listed as Homo sapiens)
50 µg/mL: MIC M. catarrhalis (Moraxella catarrhalis; [11]) | MIC P. vulgaris (Proteus vulgaris; [11]) | MIC E. coli BL21 (E. coli BL21; [11])
25 µg/mL: MIC C. diversus (Citrobacter diversus; [11]) | MIC K. pneumonia (Klebsiella pneumonia; [11]) | MIC P. aeruginosa (Pseudomonas aeruginosa; [11]) | MIC (E. coli DH5α) | MIC A. hydrophila (Aeromonas hydrophila; [11])
12.5 µg/mL: MIC E. cloacae (Enterobacter cloacae; [11]) | MIC S. marcescens (Serratia marcescens; [11]) | MIC P. mirabilis (Proteus mirabilis; [11])

PRT703 (NCSRLGCQHHCVPTLDGPTCYCNSSFQLQADGKTCK; listed as Homo sapiens)
25 µg/mL: MIC K. pneumonia (Klebsiella pneumonia; [11]) | MIC (E. coli DH5α) | MIC A. hydrophila (Aeromonas hydrophila; [11]) | MIC P. mirabilis (Proteus mirabilis; [11])
50 µg/mL: MIC M. catarrhalis (Moraxella catarrhalis; [11]) | MIC E. cloacae (Enterobacter cloacae; [11]) | MIC S. marcescens (Serratia marcescens; [11]) | MIC E. coli BL21 (E. coli BL21; [11])
12.5 µg/mL: MIC C. diversus (Citrobacter diversus; [11]) | MIC P. aeruginosa (Pseudomonas aeruginosa; [11]) | MIC P. vulgaris (Proteus vulgaris; [11])

PRT1148 (NINECSSSPCLHGADCEDHINGYVCKCQPGWSGHHCE; listed as Homo sapiens)
25 µg/mL: MIC K. pneumonia (Klebsiella pneumonia; [12]) | MIC P. vulgaris (Proteus vulgaris; [12]) | MIC E. coli BL21 (E. coli BL21; [12])
12.5 µg/mL: MIC C. diversus (Citrobacter diversus; [12]) | MIC M. catarrhalis (Moraxella catarrhalis; [12]) | MIC P. aeruginosa (Pseudomonas aeruginosa; [12]) | MIC E. cloacae (Enterobacter cloacae; [12]) | MIC S. marcescens (Serratia marcescens; [12]) | MIC (E. coli DH5α) | MIC A. hydrophila (Aeromonas hydrophila; [12]) | MIC P. mirabilis (Proteus mirabilis; [12])

PRT1474 (IPDQCSPLPCNEDGYMSCKDGKASFTCTCKPGWQGEKCE; listed as Homo sapiens)
12.5 µg/mL: MIC against C. diversus (Citrobacter diversus; [13]) | MIC against P. vulgaris (Proteus vulgaris; [19]) | MIC against E. coli BL21 (E. coli BL21; [20])
50 µg/mL: MIC against E. cloacae (Enterobacter cloacae; [17]) | MIC (E. coli DH5α) | MIC against P. mirabilis (Proteus mirabilis; [22])
25 µg/mL: MIC against K. pneumonia (Klebsiella pneumonia; [14]) | MIC against M. catarrhalis (Moraxella catarrhalis; [15]) | MIC against P. aeruginosa (Pseudomonas aeruginosa; [16]) | MIC against S. marcescens (Serratia marcescens; [18]) | MIC against A. hydrophila (Aeromonas hydrophila; [21])

PRT584 (CQCSHEGALSSLCEKTSGQCLCRTGAFGLRCDRCQRGQWGFPSCRP; listed as Homo sapiens)
25 µg/mL: MIC against C. diversus (Citrobacter diversus; [11]) | MIC against P. aeruginosa (Pseudomonas aeruginosa; [11]) | MIC against E. cloacae (Enterobacter cloacae; [11]) | MIC against S. marcescens (Serratia marcescens; [11]) | MIC against P. mirabilis (Proteus mirabilis; [11])
50 µg/mL: MIC against K. pneumonia (Klebsiella pneumonia; [11]) | MIC against M. catarrhalis (Moraxella catarrhalis; [11]) | MIC against P. vulgaris (Proteus vulgaris; [11]) | MIC against E. coli BL21 (E. coli BL21; [11]) | MIC (E. coli DH5α) | MIC against A. hydrophila (Aeromonas hydrophila; [11])

PRT1191 (AEHACTSNPCANGGSCHEVPSGFECHCPSGWSGPTCA; listed as Homo sapiens)
12.5 µg/mL: MIC C. diversus (Citrobacter diversus; [12]) | MIC P. vulgaris (Proteus vulgaris; [12]) | MIC (E. coli DH5α)
50 µg/mL: MIC M. catarrhalis (Moraxella catarrhalis; [12]) | MIC P. aeruginosa (Pseudomonas aeruginosa; [12]) | MIC S. marcescens (Serratia marcescens; [12])
25 µg/mL: MIC K. pneumonia (Klebsiella pneumonia; [12]) | MIC E. cloacae (Enterobacter cloacae; [12]) | MIC E. coli BL21 (E. coli BL21; [12]) | MIC A. hydrophila (Aeromonas hydrophila; [12]) | MIC P. mirabilis (Proteus mirabilis; [12])

PRT1273 (DVDECEREDNAGCVHDCVNIPGNYRCTCYDGFHLAHDGHNCL; listed as Homo sapiens)
12.5 µg/mL: MIC against M. catarrhalis (Moraxella catarrhalis; [3]) | MIC against P. aeruginosa (Pseudomonas aeruginosa; [4]) | MIC against E. cloacae (Enterobacter cloacae; [5]) | MIC against P. vulgaris (Proteus vulgaris; [7]) | MIC (E. coli DH5α)
50 µg/mL: MIC against K. pneumonia (Klebsiella pneumonia; [2]) | MIC against S. marcescens (Serratia marcescens; [6]) | MIC against E. coli BL21 (E. coli BL21; [8]) | MIC against A. hydrophila (Aeromonas hydrophila; [9]) | MIC against P. mirabilis (Proteus mirabilis; [10])
25 µg/mL: MIC against C. diversus (Citrobacter diversus; [1])

PRT1415 (PRATCLDQCSGHGTFLPDTGLCSCDPSWTGHDCS; listed as Homo sapiens)
50 µg/mL: MIC against C. diversus (Citrobacter diversus; [13]) | MIC against S. marcescens (Serratia marcescens; [18])
25 µg/mL: MIC against M. catarrhalis (Moraxella catarrhalis; [15]) | MIC against P. aeruginosa (Pseudomonas aeruginosa; [16]) | MIC against E. cloacae (Enterobacter cloacae; [17]) | MIC against P. vulgaris (Proteus vulgaris; [19]) | MIC (E. coli DH5α) | MIC against A. hydrophila (Aeromonas hydrophila; [21])
12.5 µg/mL: MIC against K. pneumonia (Klebsiella pneumonia; [14]) | MIC against E. coli BL21 (E. coli BL21; [20]) | MIC against P. mirabilis (Proteus mirabilis; [22])

PRT465 (ALDPCASGPCLNGGSCSNTQDPQSYHCSCPRAFTGKDCG; listed as Homo sapiens)
12.5 µg/mL: MIC against K. pneumonia (Klebsiella pneumonia; [11]) | MIC against M. catarrhalis (Moraxella catarrhalis; [11]) | MIC against P. vulgaris (Proteus vulgaris; [11]) | MIC against E. coli BL21 (E. coli BL21; [11]) | MIC against A. hydrophila (Aeromonas hydrophila; [11])
50 µg/mL: MIC against C. diversus (Citrobacter diversus; [11]) | MIC against P. aeruginosa (Pseudomonas aeruginosa; [11]) | MIC against E. cloacae (Enterobacter cloacae; [11]) | MIC against S. marcescens (Serratia marcescens; [11]) | MIC (E. coli DH5α) | MIC against P. mirabilis (Proteus mirabilis; [11])

PRT1287 (EPCRKLYCLHGICQPNATPGPMCHCEAGWVGLHCD; listed as Homo sapiens)
12.5 µg/mL: MIC against C. diversus (Citrobacter diversus; [1]) | MIC against P. aeruginosa (Pseudomonas aeruginosa; [4]) | MIC against E. cloacae (Enterobacter cloacae; [5]) | MIC against P. mirabilis (Proteus mirabilis; [10])
50 µg/mL: MIC against K. pneumonia (Klebsiella pneumonia; [2]) | MIC against M. catarrhalis (Moraxella catarrhalis; [3]) | MIC against S. marcescens (Serratia marcescens; [6]) | MIC against P. vulgaris (Proteus vulgaris; [7]) | MIC (E. coli DH5α) | MIC against A. hydrophila (Aeromonas hydrophila; [9])
25 µg/mL: MIC against E. coli BL21 (E. coli BL21; [8])

From patent publication US9833497B2, “Human originated EGF domain proteins and use of the same” (CHENGDU SOURCEBIO LIMITED-LIABILITY COMPANY, priority 2013, dated 2017)
